Where two headings read alike, the source gives them in different places.
Key:
Assay in all cases: cell-based
TAS2R39 = target: T1, TAS2R39 (Homo sapiens, UniProt P59534); design: bioluminescence intracellular calcium release assay, mt-clytin II with coelenterazine, Gα16-gust44 co-expressed
T1 sequence (P59534 1-338): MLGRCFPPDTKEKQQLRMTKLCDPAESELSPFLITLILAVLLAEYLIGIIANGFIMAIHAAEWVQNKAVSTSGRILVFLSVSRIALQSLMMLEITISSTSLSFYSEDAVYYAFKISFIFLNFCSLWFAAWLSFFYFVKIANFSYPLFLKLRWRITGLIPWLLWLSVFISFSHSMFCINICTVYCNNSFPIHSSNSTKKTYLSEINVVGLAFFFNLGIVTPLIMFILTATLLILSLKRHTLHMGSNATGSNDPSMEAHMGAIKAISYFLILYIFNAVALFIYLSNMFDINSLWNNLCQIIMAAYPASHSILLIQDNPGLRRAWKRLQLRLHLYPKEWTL
Description: (§1) The bioluminescence-based assay was used to characterize the functional properties of various human TAS2Rs. For each TAS2R, one or more of its cognate agonists were tested against either the AD-293 or 293AD cell line, or both. Both cell lines were used because of their stronger adherent properties, which facilitate media changes on the day of the FLIPR assay. However, because both cell lines are generated differently, some disparities in gene expression capacities due to a myriad of factors could be reasonably expected. Consequently, some TAS2Rs may be well expressed in one cell line but not the other, and the ability of each cell line to express a particular TAS2R needs to be empirically evaluated. […] However, deviations between our experimental and published potency values for some ligands (i.e. TAS2R4: stevioside; TAS2R7: Mg^2+, Mn^2+, Zn^2+) were observed, which could be attributed to the use of a different assay format, readout and processing parameters, use of different cell lines with resultant potential differences in TAS2R expression levels, and quality and methodological differences in ligand preparations. Because potency values could be obtained that were consistent with the literature, or close to the reported minimal effective stimulatory concentration upon further testing of other TAS2R4/7 agonists, the deviation in EC50 values could be largely attributed to qualitative differences in the ligands (Supplementary Fig. S3). Calcium responses induced by the tested cognate agonists reflected specific TAS2R stimulation. […] Poor localization of TAS2Rs to the cell surface in heterologous systems was associated with diminished receptor signaling output and functionality. One of the more commonly used strategies to enhance the density of TAS2Rs at the cell surface involves fusing an N-terminal signal sequence of either the SST3, or Rho receptor to the TAS2R[24]. We adopted this approach, specifically co-expressing SST3-TAS2R with Gα16-gust44 chimera and mt-clytin II, to develop and validate a bioluminescence-based TAS2R intracellular calcium release assay. A strength of the bioluminescence-based TAS2R assay is its capacity to generate greater assay spans than that of fluorescence-based assays, which could be largely attributed to the utilization of mt-clytin II as the calcium reporter. Calcium-binding photoproteins in general are useful reporters for studying calcium-mediated signaling processes. […] Its fast calcium binding and dissociation kinetics render it a suitable indicator to report on swift, transient changes in calcium ion concentrations and study rapid receptor-ligand interactions. Mitochondrial targeting of clytin II was crucial to generating higher luminescence intensity than that of cytosol-localized clytin II, as inositol 1,4,5-triphosphate (IP3)-induced calcium release from the ER subsequent to ligand activation is thought to result in the formation of ER-proximal, calcium-rich microdomains that enabled the closely apposed mitochondria to sense a higher initial rise in calcium concentration than would be experienced by the bulk cytosol.

TAS2R5 = target: T2, TAS2R5 (Homo sapiens, UniProt Q9NYW4); design: bioluminescence intracellular calcium release assay, mt-clytin II with coelenterazine, Gα16-gust44 co-expressed; conditions: 293AD cells
T2 sequence (Q9NYW4 1-299): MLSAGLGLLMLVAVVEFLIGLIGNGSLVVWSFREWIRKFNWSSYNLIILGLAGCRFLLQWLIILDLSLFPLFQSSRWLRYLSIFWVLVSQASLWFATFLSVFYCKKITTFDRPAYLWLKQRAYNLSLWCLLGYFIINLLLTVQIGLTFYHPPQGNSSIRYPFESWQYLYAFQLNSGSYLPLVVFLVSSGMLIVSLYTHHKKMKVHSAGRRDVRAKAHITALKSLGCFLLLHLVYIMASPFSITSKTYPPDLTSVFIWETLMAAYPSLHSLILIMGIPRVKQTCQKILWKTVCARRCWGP
Description: as §1

TAS2R46 [1] = target: T3, TAS2R46 (Homo sapiens, UniProt P59540); design: species or system AD-293; bioluminescence intracellular calcium release assay, mt-clytin II with coelenterazine, Gα16-gust44 co-expressed
T3 sequence (P59540 1-309): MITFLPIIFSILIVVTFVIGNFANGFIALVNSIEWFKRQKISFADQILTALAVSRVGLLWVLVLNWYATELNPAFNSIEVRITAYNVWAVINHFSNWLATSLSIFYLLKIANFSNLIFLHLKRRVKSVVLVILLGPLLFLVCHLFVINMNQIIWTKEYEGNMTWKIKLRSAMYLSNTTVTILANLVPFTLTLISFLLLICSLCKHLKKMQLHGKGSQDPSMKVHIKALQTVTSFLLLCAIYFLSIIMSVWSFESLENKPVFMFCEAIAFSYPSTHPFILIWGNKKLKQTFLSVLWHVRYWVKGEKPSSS
Description: (§2) The bioluminescence-based assay was used to characterize the functional properties of various human TAS2Rs. For each TAS2R, one or more of its cognate agonists were tested against either the AD-293 or 293AD cell line, or both. Both cell lines were used because of their stronger adherent properties, which facilitate media changes on the day of the FLIPR assay. However, because both cell lines are generated differently, some disparities in gene expression capacities due to a myriad of factors could be reasonably expected. Consequently, some TAS2Rs may be well expressed in one cell line but not the other, and the ability of each cell line to express a particular TAS2R needs to be empirically evaluated. […] However, deviations between our experimental and published potency values for some ligands (i.e. TAS2R4: stevioside; TAS2R7: Mg^2+, Mn^2+, Zn^2+) were observed, which could be attributed to the use of a different assay format, readout and processing parameters, use of different cell lines with resultant potential differences in TAS2R expression levels, and quality and methodological differences in ligand preparations. […] A strength of the bioluminescence-based TAS2R assay is its capacity to generate greater assay spans than that of fluorescence-based assays, which could be largely attributed to the utilization of mt-clytin II as the calcium reporter. […]

TAS2R46 [2] = target: T3, TAS2R46; design: species or system 293AD; bioluminescence intracellular calcium release assay, mt-clytin II with coelenterazine, Gα16-gust44 co-expressed
Description: as §2

| EC50 (TAS2R39; 293AD cells) | EC50 (TAS2R39; AD-293 cells) | EC50 (TAS2R5) | SMILES | EC50 (TAS2R46 [1]) | EC50 (TAS2R46 [2]) |
| --- | --- | --- | --- | --- | --- |
| 141 ± 44 µM | 362 ± 81 µM | 47 ± 11 µM | O=C(O[C@@H]1Cc2c(O)cc(O)cc2O[C@@H]1c1cc(O)c(O)c(O)c1)c1cc(O)c(O)c(O)c1 [Epigallocatechin gallate] |  |  |
|  |  |  | O=C1C[C@@H]2OCC=C3CN4CC[C@]56c7ccccc7N1[C@H]5[C@H]2[C@H]3C[C@H]46 [Strychnine] | 1.2 µM | 0.309 ± 0.073 µM |
